Measured values from patent publication US12083101B2, “Biaryl derivatives as YAP/TAZ-TEAD protein-protein interaction inhibitors” (Novartis AG, priority 2020, dated 2024).

Tests used:
[1] = target: Avi-humanTEAD4 217-434 / Cy5 labeled humanYAP 60-100 (Homo sapiens (Human), UniProt Q15561); test: TR-FRET YAP-TEAD4 in-vitro biochemical assay; type: binding; conditions: 1 nM Avi-humanTEAD4 217-434, 20 nM Cy5-humanYAP 60-100, 1 h room temperature
[2] = system: MKN-45/Ubc-luc cells; test: Reporter gene specificity control (Ubc-luciferase), MKN-45; conditions: Homo sapiens, MKN-45, 24 h, read-out: Reporter gene assay MKN-45 IC50 [μM], MKN-45/Ubc-luc cells (YAP deleted, specificity control), 24 hours incubation
[3] = system: NCI-H2052 Tet-On shYAP_2371 pLenti6 MCAT_Luc cells; test: Proliferation assay (resazurin), NCI-H2052; type: cell-based; conditions: Homo sapiens, NCI-H2052, 72 h, 72 hours incubation
Method: (§1) This cell line was also transduced with a Tet-pLKO-puro-based construct mediating tetracycline-inducible expression of a short-hairpin directed against the 3′UTR of the YAP1 mRNA (5′-[…]-3′).
(§2) Stock solutions of compounds were prepared at a concentration of 10 mM in DMSO and stored at 4° C. Where necessary to afford a full dose-response curve, the stock solutions were pre-diluted in DMSO to 1'000-fold the desired reduced start concentration. On the day after cell seeding, eleven 2-fold serial dilutions of each compound were dispensed directly into the cell assay plates using a HP 300D non-contact Digital Dispenser (TECAN, Mannedorf, Switzerland). The final concentration of DMSO was normalized to 0.1% in all wells.
(§3) The functional effect of compounds on cell proliferation was assessed using NCI-H2052 Tet-On shYAP_2371 pLenti6 MCAT_Luc and MKN-45/Ubc-luc cells by quantifying the reducing capacity of live cells using the redox indicator dye resazurin. […] For data analysis, the assay background value determined in wells containing medium, but no cells, was subtracted from all data points. […] The effect of a particular test compound concentration on cell proliferation/viability was expressed as percentage of day 0-corrected fluorescence reading obtained for cells treated with vehicle only (DMSO, final concentration 0.1%), which was set as 100%, whereas the fluorescence reading for wells containing medium only, but no cells, was set as −100%. Compound concentrations leading to half-maximal growth inhibition (GI50) were determined using standard four parameter curve fitting.

[4] = system: NCI-H2052 Tet-On shYAP_2371 pLenti6 MCAT_Luc cells (YAP-dependent transcription); test: YAP reporter gene activity assay (MCAT-luciferase), NCI-H2052; type: cell-based; conditions: Homo sapiens, NCI-H2052, 24 h, 24 hours incubation, BrightGlo luminescence
Method: as §1, §2
The ability of compounds to inhibit YAP-dependent transcription was assessed in NCI-H2052 Tet-On shYAP_2371 pLenti6 MCAT_Luc cells, while specificity (lack of unspecific inhibition of luciferase expression of activity) was assessed in MKN-45/Ubc-luc cells. […] Following incubation for 24 hours at 37° C., compound-mediated modulation of reporter-gene activity was quantified 5 min after addition of 20 μl BrightGlo (Promega, Cat #E2620), by measuring luminescence intensity on a multi-mode plate-reader (TECAN, Männedorf, Switzerland, Integration time 100 ms). For data analysis, the assay background value determined in wells containing medium, but no cells, was subtracted from all data points. Dose-dependent compound effects were expressed as % of vehicle-treated control (luminescence signal produced by cells receiving DMSO only) and IC50s calculated using a four-parametric fit model.

[5] = system: MKN-45/Ubc-luc cells; test: Proliferation assay (resazurin), MKN-45; type: cell-based; conditions: Homo sapiens, 72 hours incubation
Method: As a specificity control, MKN-45 cells were stably transduced with a Ubc-Luc reporter construct, in which constitutive expression of firefly luciferase is driven by the promoter of the ubiquitin C housekeeping gene.
as §2, §3

Chain of Avi-humanTEAD4 217-434 / Cy5 labeled humanYAP 60-100 (Q15561 217-434): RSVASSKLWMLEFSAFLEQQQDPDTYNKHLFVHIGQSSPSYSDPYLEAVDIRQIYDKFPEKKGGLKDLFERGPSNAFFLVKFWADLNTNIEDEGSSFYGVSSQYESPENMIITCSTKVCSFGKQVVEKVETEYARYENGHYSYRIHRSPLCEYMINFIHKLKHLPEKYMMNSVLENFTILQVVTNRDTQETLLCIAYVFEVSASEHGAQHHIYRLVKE

SMILES	IC50 [1] [nM]	IC50 [2] [µM]	GI50 [3] [nM]	IC50 [4] [nM]	GI50 [5] [nM]
NC[C@@]1(c2ccccc2)Cc2c(ccc(Cl)c2-c2c(F)cccc2C(N)=O)O1 (atropisomer, axis not shown) [Example 4a-1, 2-((2S,4S)-2-(aminomethyl)-5-chloro-2-phenyl-2,3-dihydrobenzofuran-4-yl)-3-fluorobenzamide]	20	> 10	590	600	> 10000
NC[C@@]1(c2ccccc2)Cc2c(ccc(Cl)c2-c2c(C(N)=O)ccc(OCCO)c2F)O1 (atropisomer, axis not shown) [Example 10, 2-((2S,4S)-2-(aminomethyl)-5-chloro-2-phenyl-2,3-dihydrobenzofuran-4-yl)-3-fluoro-4-(2-hydroxyethoxy)benzamide]	3	> 10	99	64	> 10000
NC[C@@]1(c2ccccc2)Cc2c(ccc(Cl)c2-c2c(C(N)=O)ccc(OC(F)F)c2F)O1 (atropisomer, axis not shown) [Example 11, 2-((2S,4S)-2-(aminomethyl)-5-chloro-2-phenyl-2,3-dihydrobenzofuran-4-yl)-4-(difluoromethoxy)-3-fluorobenzamide]	21	> 20	284	173	> 10000
C[C@H](O)COc1ccc(C(N)=O)c(-c2c(Cl)ccc3c2C[C@@](CN)(c2ccccc2)O3)c1F (atropisomer, axis not shown) [Example 13, 2-((2S,4S)-2-(aminomethyl)-5-chloro-2-phenyl-2,3-dihydrobenzofuran-4-yl)-3-fluoro-4-((S)-2-hydroxypropoxy)benzamide]	6	> 10	166	102	> 10000
C[C@@H](O)COc1ccc(C(N)=O)c(-c2c(Cl)ccc3c2C[C@@](CN)(c2ccccc2)O3)c1F (atropisomer, axis not shown) [Example 14, 2-((2S,4S)-2-(aminomethyl)-5-chloro-2-phenyl-2,3-dihydrobenzofuran-4-yl)-3-fluoro-4-((R)-2-hydroxypropoxy)benzamide]	15	> 10	190	176	> 10000
C[C@@H](F)COc1ccc(C(N)=O)c(-c2c(Cl)ccc3c2C[C@@](CN)(c2ccccc2)O3)c1F (atropisomer, axis not shown) [Example 15, 2-((2S,4S)-2-(aminomethyl)-5-chloro-2-phenyl-2,3-dihydrobenzofuran-4-yl)-3-fluoro-4-((R)-2-fluoropropoxy)benzamide]	10	> 10	276	270	> 10000
COc1ncc(C(N)=O)c(-c2c(Cl)ccc3c2C[C@@](CN)(c2ccccc2)O3)c1F (atropisomer, axis not shown) [Example 18, 4-((2S,4S)-2-(Aminomethyl)-5-chloro-2-phenyl-2,3-dihydrobenzofuran-4-yl)-5-fluoro-6-methoxynicotinamide]	4	19.5	553	379	> 12500
CNc1ccc(C(N)=O)c(-c2c(Cl)ccc3c2C[C@@](CN)(c2ccccc2)O3)c1F (atropisomer, axis not shown) [Example 20, 2-((2S,4S)-2-(Aminomethyl)-5-chloro-2-phenyl-2,3-dihydrobenzofuran-4-yl)-3-fluoro-4-(methylamino)benzamide]	124	> 10	6880	2920	> 10000
CNC[C@@]1(c2ccccc2)Cc2c(ccc(Cl)c2-c2c(C(N)=O)ccc(OC)c2F)O1 (atropisomer, axis not shown) [Example 21, 2-((2S,4S)-5-Chloro-2-((methylamino)methyl)-2-phenyl-2,3-dihydrobenzofuran-4-yl)-3-fluoro-4-methoxybenzamide]	4	> 10	247	154	> 10000
CNC(=O)c1ccc(OC)c(F)c1-c1c(Cl)ccc2c1C[C@@](CN)(c1ccccc1)O2 (atropisomer, axis not shown) [Example 22, 2-((2S,4S)-2-(Aminomethyl)-5-chloro-2-phenyl-2,3-dihydrobenzofuran-4-yl)-3-fluoro-4-methoxy-N-methylbenzamide]	9	> 20	256	157	> 10000
COc1ccc(C(=O)Nc2cccnc2)c(-c2c(Cl)ccc3c2C[C@@](CN)(c2ccccc2)O3)c1F (atropisomer, axis not shown) [Example 25, 2-((2S,4S)-2-(aminomethyl)-5-chloro-2-phenyl-2,3-dihydrobenzofuran-4-yl)-3-fluoro-4-methoxy-N-(pyridin-3-yl)benzamide]	5	> 10	145	106	> 10000
CNC[C@@]1(c2ccccc2)Cc2c(ccc(Cl)c2-c2c(C(=O)NC)ccc(OC)c2F)O1 (atropisomer, axis not shown) [Example 26, 2-((2S,4S)-5-Chloro-2-((methylamino)methyl)-2-phenyl-2,3-dihydrobenzofuran-4-yl)-3-fluoro-4-methoxy-N-methylbenzamide]	21	> 20	310	144	> 10000
COc1ccc(C(N)=O)c(-c2c(Cl)ccc3c2C[C@@](CN)(c2cscn2)O3)c1F (atropisomer, axis not shown) [Example 29, 2-((2R,4S)-2-(Aminomethyl)-5-chloro-2-(thiazol-4-yl)-2,3-dihydrobenzofuran-4-yl)-3-fluoro-4-methoxybenzamide]	10	> 10	1850	2000	> 10000
NC[C@@]1(c2cccc3c2OC(F)(F)O3)Cc2c(ccc(Cl)c2-c2c(F)cccc2C(N)=O)O1 (atropisomer, axis not shown) [Example 30, 2-((2S,4S)-2-(aminomethyl)-5-chloro-2-(2,2-difluorobenzo[d][1,3]dioxol-4-yl)-2,3-dihydrobenzofuran-4-yl)-3-fluorobenzamide]	143	> 10	6840	4770	> 10000
COc1ccc(C(N)=O)c(-c2c(Cl)ccc3c2C[C@@](CN)(c2ccccc2F)O3)c1F (atropisomer, axis not shown) [Example 31, 2-((2S,4S)-2-(Aminomethyl)-5-chloro-2-(2-fluorophenyl)-2,3-dihydrobenzofuran-4-yl)-3-fluoro-4-methoxybenzamide]	3	> 10	346	343	> 10000
CNC(=O)c1ccc(OCCO)c(F)c1-c1c(Cl)c(F)cc2c1C[C@@](CN)(c1ccccc1)O2 (atropisomer, axis not shown) [Example 44, 2-((2S,4S)-2-(Aminomethyl)-5-chloro-6-fluoro-2-phenyl-2,3-dihydrobenzofuran-4-yl)-3-fluoro-4-(2-hydroxyethoxy)-N-methylbenzamide]	–	> 10	109	69	> 10000
CO[C@H]1c2c(cc(F)c(Cl)c2-c2c(C(N)=O)ccc(OCCO)c2F)O[C@]1(CN)c1ccccc1 (atropisomer, axis not shown) [Example 101, 2-((2S,3S,4S)-2-(Aminomethyl)-5-chloro-6-fluoro-3-methoxy-2-phenyl-2,3-dihydrobenzofuran-4-yl)-3-fluoro-4-(2-hydroxyethoxy)benzamide]	–	> 10	106	67	> 10000
